Results published in PMC10978029 (Virulence, 2024).

Experiments:
STM0435 [1] = target: STM0435 (Salmonella enterica, UniProt Q8ZRC9, R33H); assay: biochemical
STM0435 [2] = target: STM0435 (Salmonella enterica, UniProt Q8ZRC9, D138H/R137H); assay: biochemical
STM0435 [3] = target: STM0435 (Salmonella enterica, UniProt Q8ZRC9, D138H/R137H/R33H); assay: biochemical
STM0435 [4] = target: T1, STM0435 (Salmonella enterica, UniProt Q8ZRC9); assay: SPR; type: binding
T1 sequence (Q8ZRC9 1-163): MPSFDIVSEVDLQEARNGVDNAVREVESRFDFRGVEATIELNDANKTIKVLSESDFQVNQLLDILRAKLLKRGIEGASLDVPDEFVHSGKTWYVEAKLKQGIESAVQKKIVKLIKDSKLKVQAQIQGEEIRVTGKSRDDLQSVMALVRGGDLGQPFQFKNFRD

SMILES: Nc1nc2c(ncn2[C@@H]2O[C@@H]3CO[P@](=O)(O)O[C@H]4[C@@H](O)[C@H](n5cnc6c(=O)[nH]c(N)nc65)O[C@@H]4CO[P@](=O)(O)O[C@H]3[C@H]2O)c(=O)[nH]1 [c-di-GMP]
- Kd (STM0435 [1]): 15.2 µM
- Kd (STM0435 [2]): 25.3 µM
- Kd (STM0435 [3]): 33.2 µM
- Kd (STM0435 [4]): 8.38 µM
